# Laboratory results as given in patent US20080311232A1, “Cooling Compounds” (Givaudan, SA, priority 2007, published 2008).
# Experiments:
# Assay type in all cases: in vivo, human
# panelists = experiment: Cooling intensity: panelists taste aqueous solutions, compared with menthol at 2 ppm; conditions: tasted by small group of panelists
# panelist [1] = experiment: Application in chewing gum: 2 g gum chewed by a panelist for 20 minutes, cooling perception; conditions: for cooling perception rated higher than the control: control = peppermint oil gum
# Protocol: The gum base, and half of the sorbitol were mixed, maltitol syrup was added and then mixed with the gum mass. The rest of the powdered ingredients (rest of the sorbitol, mannitol, ace-K, aspartame) were added and mixed for about 1 minute, at which point glycerine was added and the gum mass was mixed for about 5 minutes, to form the blank chewing gum mass. Peppermint oil was worked into the mass and a piece of the resulting gum (2 g) was chewed by a panelist for […] and spat out. […] The cooling perception lasted far 50 minutes.
# The chemical in the peppermint oil was worked into the blank chewing gum mass from Example 12 a) and a piece of the resulting gum (2 g) was chewed by a panelist for 20 minutes and spat out. […] The cooling perception was rated 43% higher than the control and lasted for over 60 minutes.
# The chemical and peppermint oil was worked into the blank chewing gum mass from Example 12 a) and a piece of the resulting gum (2 g) was chewed by a panelist for 20 minutes and spat out. […] The cooling perception was rated 40% higher than the control and lasts for over 60 minutes.
# The chemical in the peppermint oil was worked into the blank chewing gum mass from Example 12 a) and a piece of the resulting gum (2 g) was chewed by a panelist for 20 minutes and spat out. […] The cooling perception was rated 27% higher than the control and lasted for over 60 minutes.
# panelist [2] = experiment: Application in toothpaste: toothgel brushed on a panelist's teeth, cooling perception; conditions: for cooling perception rated higher than the control: control = peppermint oil toothgel
# Protocol: The materials were mixed in the toothgel, a piece of toothgel was put on a toothbrush and a panelist's teeth were brushed. The mouth was rinsed with water and the water spat out. […] The cooling perception lasted for 40 minutes.
# The materials were mixed in the toothgel, a piece of toothgel was put on a toothbrush and a panelist's teeth were brushed. The mouth was rinsed with water and the water spat out. […] The cooling perception was rated 24% higher than the control and lasted for 70 minutes.
# The materials were mixed in the toothgel, a piece of toothgel was put on a toothbrush and a panelist's teeth were brushed. The mouth was rinsed with water and the water spat out. […] The cooling perception was rated 18% higher than the control and lasted for 60 minutes.
# The materials were mixed in the toothgel, a piece of toothgel was put on a toothbrush and a panelist's teeth were brushed. The mouth was rinsed with water and the water spat out. […] The cooling perception was rated 95% higher than the control and lasted for 65 minutes.
# The materials were mixed in the toothgel, a piece of toothgel was put on a toothbrush and a panelist's teeth were brushed. The mouth was rinsed with water and the water spat out. […] The cooling perception was rated 100% higher than the control and lasted for 40 minutes.
# The materials were mixed in the toothgel, a piece of toothgel was put on a toothbrush and a panelist's teeth were brushed. The mouth was rinsed with water and the water spat out. […] The cooling perception was rated 30% higher than the control and lasted for over 35 minutes.
# [3] = chewing gum: 0.50 g of 1% solution of compound in peppermint oil
# [4] = toothgel: 0.10 g of 1% solution of compound in peppermint oil + 0.40 g peppermint oil
# [5] = chewing gum: 0.05 g of 1% solution of compound in peppermint oil + 0.45 g peppermint oil
# [6] = toothgel: 0.05 g of 1% solution of compound in peppermint oil + 0.45 g peppermint oil
# [7] = toothgel: 0.50 g of 1% solution of compound in peppermint oil
# [8] = toothgel: 0.025 g compound + 0.50 g peppermint oil
structure (smiles),measurement,setting,value
"CC1(C)[C@H]2CC[C@]1(C)[C@H](OC(=O)CCC(=O)O)C2 [Example 1, 4-oxo-4-(1S,2R,4S)1,7,7-trimethylbicyclo[2.2.1]heptan-2-yloxybutanoic acid]",Concentration with a cooling intensity similar to or slightly higher than that of a solution of menthol at 2 ppm,panelists,0.003 ppm
"O=C(O)CCC(=O)O[C@H]1C[C@@H]2CC[C@H]1C2 [Example 3, 4-((1S,2S,4R)-bicyclo[2.2.1]heptan-2-yloxy)-4-oxobutanoic acid]",cooling sensation felt,panelist [1]; [3],cooling sensation
same,duration of cooling perception,panelist [1]; [3],over 60 minutes
same,cooling perception rated higher than the control,panelist [1]; [3],43%
same,cooling sensation felt,panelist [2]; [4],intense cooling sensation
same,duration of cooling perception,panelist [2]; [4],70 min
same,cooling perception rated higher than the control,panelist [2]; [4],24%
"CC1(C)[C@@H]2CC[C@@]1(C)[C@H](OC(=O)CCC(=O)O)C2 [Example 4, 4-oxo-4-((1R,2R,4R)-1,7,7-trimethylbicyclo[2.2.1]heptan-2-yloxy)butanoic acid]",Concentration with a cooling intensity similar to or slightly higher than that of a solution of menthol at 2 ppm,panelists,0.001 ppm
same,cooling sensation felt,panelist [1]; [5],cooling sensation
same,duration of cooling perception,panelist [1]; [5],over 60 minutes
same,cooling perception rated higher than the control,panelist [1]; [5],40%
same,cooling sensation felt,panelist [2]; [6],intense cooling sensation
same,duration of cooling perception,panelist [2]; [6],40 min
same,cooling perception rated higher than the control,panelist [2]; [6],100%
"CCOC(=O)CC(=O)O[C@@H]1C2(C)CCC(C2)C1(C)C (stereo partly drawn) [Example 6, Ethyl (2R)-1,3,3-trimethylbicyclo[2.2.1]heptan-2-yl malonate]",Concentration with a cooling intensity similar to or slightly higher than that of a solution of menthol at 2 ppm,panelists,0.10 ppm
same,cooling sensation felt,panelist [1]; [3],cooling sensation
same,duration of cooling perception,panelist [1]; [3],over 60 minutes
same,cooling perception rated higher than the control,panelist [1]; [3],27%
same,cooling sensation felt,panelist [2]; [4],intense cooling sensation
same,duration of cooling perception,panelist [2]; [4],60 min
same,cooling perception rated higher than the control,panelist [2]; [4],18%
same,cooling sensation felt,panelist [2]; [7],intense cooling sensation
same,duration of cooling perception,panelist [2]; [7],65 min
same,cooling perception rated higher than the control,panelist [2]; [7],95%
"CN(C)C(=O)CCC(=O)O[C@@H]1C2(C)CCC(C2)C1(C)C (stereo partly drawn) [Example 7, (2R)-1,3,3-trimethylbicyclo[2.2.1]heptan-2-yl 4-(dimethylamino)-4-oxobutanoate]",Concentration with a cooling intensity similar to or slightly higher than that of a solution of menthol at 2 ppm,panelists,0.002 ppm
"C[C@@H](N)C(=O)OC1C2(C)CCC(C2)C1(C)C (stereo partly drawn) [Example 8, D-alanine fenchyl ester]",Concentration with a cooling intensity similar to or slightly higher than that of a solution of menthol at 2 ppm,panelists,0.20 ppm
same,cooling sensation felt,panelist [2]; [8],intense cooling sensation
same,duration of cooling perception,panelist [2]; [8],over 35 minutes
same,cooling perception rated higher than the control,panelist [2]; [8],30%
"CC1(C)[C@H]2CC[C@](C)(C2)[C@H]1OC(=O)CCC(=O)O [Example 9, 4-oxo-4-((1R,2R,4S)-1,3,3-trimethylbicyclo[2.2.1]heptan-2-yloxy)butanoic acid]",Concentration with a cooling intensity similar to or slightly higher than that of a solution of menthol at 2 ppm,panelists,0.10 ppm
"CCNC(=O)C1CC(C)CCC1C(C)C (centres unmarked) [WS-3, N-ethyl p-menthanecarboxamide, reference compound]",Concentration with a cooling intensity similar to or slightly higher than that of a solution of menthol at 2 ppm,panelists,1.5 ppm
"CC(C)[C@@H]1CC[C@@H](C)C[C@H]1O [l-Menthol, reference compound]",Concentration with a cooling intensity similar to or slightly higher than that of a solution of menthol at 2 ppm,panelists,2.0 ppm
